According to ChEMBL document CHEMBL3576836, “Bioactive Metabolites from the Fruits of Psoralea corylifolia” (J Nat Prod, 2015):
Activity calls are given as the source filed them. The rule behind the calls is not given here.

What was measured:
A549 = experiment: Cytotoxicity against human A549 cells after 48 hrs by MTT assay; type: functional, cell-based; settings: A549, 48 h
K562 = experiment: Cytotoxicity against human K562 cells after 48 hrs by MTT assay; type: functional, cell-based; settings: K562, 48 h
[1] = molecular target: T1, NAD-dependent protein deacetylase sirtuin-1 (Homo sapiens) (UniProt Q96EB6); experiment: Increase in SIRT1 (unknown origin) deacetylation activity at 10 uM
T1 sequence (whole entry): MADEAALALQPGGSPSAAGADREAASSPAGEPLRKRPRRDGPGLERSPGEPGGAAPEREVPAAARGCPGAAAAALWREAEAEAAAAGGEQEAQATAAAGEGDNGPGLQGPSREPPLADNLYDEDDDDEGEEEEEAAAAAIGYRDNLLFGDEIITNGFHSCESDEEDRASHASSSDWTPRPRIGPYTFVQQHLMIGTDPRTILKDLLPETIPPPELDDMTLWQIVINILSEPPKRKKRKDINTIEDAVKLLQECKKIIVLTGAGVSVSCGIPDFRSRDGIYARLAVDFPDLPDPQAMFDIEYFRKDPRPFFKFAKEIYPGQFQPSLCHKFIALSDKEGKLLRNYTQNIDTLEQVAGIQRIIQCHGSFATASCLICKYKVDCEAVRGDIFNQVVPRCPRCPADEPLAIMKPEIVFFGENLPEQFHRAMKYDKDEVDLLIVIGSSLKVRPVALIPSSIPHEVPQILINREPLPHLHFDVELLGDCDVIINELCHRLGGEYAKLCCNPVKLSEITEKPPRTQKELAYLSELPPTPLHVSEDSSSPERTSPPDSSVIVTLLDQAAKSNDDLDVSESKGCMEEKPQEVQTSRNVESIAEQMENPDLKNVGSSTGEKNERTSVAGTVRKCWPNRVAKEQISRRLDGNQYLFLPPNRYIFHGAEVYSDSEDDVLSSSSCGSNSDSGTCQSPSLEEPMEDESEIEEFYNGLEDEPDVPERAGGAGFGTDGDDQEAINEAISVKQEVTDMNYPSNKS

[2] = Inhibition of Streptococcus mutans OMZ65 recombinant sortase A delta-40 mutant using Dabcyl-QALPETGEE-Edans as substrate after 1 hr by fluorescence spectrophotometry
[3] = molecular target: T1, NAD-dependent protein deacetylase sirtuin-1 (Homo sapiens); experiment: Stimulation of SIRT1 (unknown origin) expressed in HEK293 cells coexpressing p53-Luc assessed as decrease in p53 transcriptional activity; type: cell-based
[4] = molecular target: T1, NAD-dependent protein deacetylase sirtuin-1 (Homo sapiens); experiment: Stimulation of SIRT1 (unknown origin) expressed in HEK293 cells assessed as increase in intracellular NAD+/NADH ratio; type: cell-based
[5] = molecular target: T1, NAD-dependent protein deacetylase sirtuin-1 (Homo sapiens); experiment: Increase in SIRT1 (unknown origin) deacetylation activity

In the case of C=C(C)[C@@H]1Cc2cc3c(cc2O1)O[C@H](c1ccc(O)cc1)CC3=O, the IC50 (A549) is reported as greater than 10 µM, the IC50 (K562) is reported as greater than 10 µM and the Activity [1] is reported as “inactive”.
With Oc1ccc(O)cc1 [HYDROQUINONE] the IC50 (A549) was greater than 10 µM, the IC50 (K562) was greater than 10 µM and the Activity [1] was “inactive”.
In the case of C=C[C@@](C)(/C=C/c1ccc(O)cc1)CC[C@@H](O)C(C)(C)O, the IC50 (A549) is reported as greater than 10 µM, the IC50 (K562) is reported as greater than 10 µM and the Activity [1] is reported as “inactive”.
For O=c1ccc2ccc3occc3c2o1 [ANGELICIN], the IC50 (A549) was greater than 10 µM, the IC50 (K562) was greater than 10 µM and the Activity [1] was “inactive”.
Compound CC(C)(O)[C@@H]1Cc2cc3c(cc2O1)oc1c2ccc(O)cc2oc(=O)c31 has an IC50 (A549) greater than 10 µM, an IC50 (K562) greater than 10 µM and an IC50 [2] of 138 µM. For the same compound, the Activity [1] was “inactive”.
For C=C[C@@](C)(/C=C/c1ccc(O)cc1)C/C=C/C(C)(C)O, the IC50 (A549) was greater than 10 µM, the IC50 (K562) was greater than 10 µM and the Activity [1] was “inactive”.
For CC(C)(O)[C@H]1Cc2c(ccc3c2O/C(=C\c2ccc(O)c(O)c2)C3=O)O1, the IC50 (A549) was greater than 10 µM, the Activity [3] was “Dose-dependent effect” and the Activity [4] was “Dose-dependent effect”. The IC50 (K562) was greater than 10 µM, the IC50 [2] was 209 µM and the Activity [1] was “Active”. For the same compound, the Activity [5] was “Dose-dependent effect”.
In the case of COc1cc2oc(-c3ccc(O)cc3)cc(=O)c2cc1CC=C(C)C [BAVACHININ], the IC50 (A549) is reported as greater than 10 µM, the IC50 (K562) is reported as greater than 10 µM and the Activity [1] is reported as “inactive”.
Work on CC(C)=CCc1cc(-c2coc3cc(O)cc(O)c3c2=O)ccc1O [CORYLIN] yielded an IC50 (A549) greater than 10 µM, an IC50 (K562) greater than 10 µM and an IC50 [2] of 272 µM. For the same compound, the Activity [1] was “inactive”.
With CC(C)=CCc1cc(C(=O)/C=C/c2ccc(O)cc2)c(O)cc1O [BROUSSOCHALCONE B] the IC50 (A549) was greater than 10 µM, the IC50 (K562) was greater than 10 µM and the Activity [1] was “inactive”.
For CC(C)=CCc1cc2c(cc1O)O[C@H](c1ccc(O)cc1)CC2=O [BAVACHIN], the IC50 (A549) was greater than 10 µM, the IC50 (K562) was greater than 10 µM and the Activity [1] was “inactive”.
For CC(C)(O)[C@@H]1Cc2cc3c(cc2O1)O[C@H](c1ccc(O)cc1)CC3=O, the IC50 (A549) was greater than 10 µM, the IC50 (K562) was greater than 10 µM and the Activity [1] was “inactive”.
For CC1(C)Oc2ccc(-c3coc4cc(O)ccc4c3=O)cc2C[C@@H]1O, the IC50 (A549) was greater than 10 µM, the IC50 (K562) was greater than 10 µM and the IC50 [2] was 236 µM. For the same compound, the Activity [1] was “inactive”.
For C=C[C@@](C)(/C=C/c1ccc(O)cc1)CCC1OC1(C)C (stereo not given in full), the IC50 (A549) was greater than 10 µM, the IC50 (K562) was greater than 10 µM and the Activity [1] was “inactive”.
With C=C[C@@](C)(/C=C/c1ccc(O)cc1)CCC(=O)C(=C)C the IC50 (A549) was greater than 10 µM, the IC50 (K562) was greater than 10 µM and the Activity [1] was “inactive”.
CC(C)=CCc1cc(-c2coc3cc(O)ccc3c2=O)ccc1O [NEOBAVAISOFLAVONE] showed an IC50 (A549) greater than 10 µM, an IC50 (K562) greater than 10 µM and an IC50 [2] of 284 µM. For the same compound, the Activity [1] was “inactive”.
For O=Cc1ccc(O)c(O)c1 [PROTOCATECHUALDEHYDE], the IC50 (A549) was greater than 10 µM, the IC50 (K562) was greater than 10 µM and the IC50 [2] was 514 µM. For the same compound, the Activity [1] was “inactive”.
For CC(C)(O)[C@H]1Oc2cc3oc4c5ccc(O)cc5oc(=O)c4c3cc2[C@@H]1O, the IC50 (A549) was greater than 10 µM, the IC50 (K562) was greater than 10 µM and the IC50 [2] was 119 µM. The Activity [1] was “inactive”.
In the case of Para-Hydroxymercuribenzoic acid, the IC50 [2] is reported as 118 µM.
With C=C(C)[C@@H]1Cc2cc3c(cc2O1)oc1c2ccc(O)cc2oc(=O)c31 the IC50 (A549) was greater than 10 µM, the IC50 (K562) was greater than 10 µM and the Activity [1] was “inactive”.
In the case of CC(C)(O)c1cc2c3c(ccc2o1)C(=O)C[C@@H](c1ccc(O)cc1)O3, the IC50 (A549) is reported as greater than 10 µM, the Activity [3] is reported as “Dose-dependent effect” and the Activity [4] is reported as “Dose-dependent effect”. The IC50 (K562) was greater than 10 µM, the IC50 [2] was 135 µM and the Activity [1] was “Active”. For the same compound, the Activity [5] was “Dose-dependent effect”.
For CC(C)(O)[C@@H]1Oc2ccc(-c3coc4cc(O)ccc4c3=O)cc2[C@H]1O, the IC50 (A549) was greater than 10 µM, the Activity [3] was “Dose-dependent effect” and the Activity [4] was “Dose-dependent effect”. The IC50 (K562) was greater than 10 µM, the Activity [1] was “Active” and the Activity [5] was “Dose-dependent effect”.
In the case of C=C(C)[C@H]1Cc2c(ccc3c2O/C(=C\c2ccc(O)c(O)c2)C3=O)O1, the IC50 (A549) is reported as greater than 10 µM, the IC50 (K562) is reported as greater than 10 µM and the Activity [1] is reported as “inactive”.
With CC1(C)Oc2ccc(-c3coc4cc(O)ccc4c3=O)cc2[C@H](O)[C@@H]1O the IC50 (A549) was greater than 10 µM, the IC50 (K562) was greater than 10 µM and the Activity [1] was “inactive”.
In the case of CC(C)=CCc1c(O)ccc(C(=O)/C=C/c2ccc(O)cc2)c1O [ISOBAVACHALCONE], the IC50 (A549) is reported as greater than 10 µM, the IC50 (K562) is reported as greater than 10 µM and the Activity [1] is reported as “inactive”.
For CC1(C)Oc2ccc(-c3coc4cc(O)ccc4c3=O)cc2[C@@H](O)[C@@H]1O, the IC50 (A549) was greater than 10 µM, the IC50 (K562) was greater than 10 µM and the Activity [1] was “inactive”.
With O=Cc1ccc(O)cc1 [4-HYDROXYBENZALDEHYDE] the IC50 (A549) was greater than 10 µM, the IC50 (K562) was greater than 10 µM and the Activity [1] was “inactive”.
Compound O=c1ccc2cc3ccoc3cc2o1 [PSORALEN] has an IC50 (A549) greater than 10 µM, an IC50 (K562) greater than 10 µM and an IC50 [2] of 330 µM. For the same compound, the Activity [1] was “inactive”.
